Laboratory results as given in ChEMBL document CHEMBL1146845, “Structural determinants for N1/N7 cyclization of nicotinamide hypoxanthine 5'-dinucleotide (NHD+) derivatives by ADP-ribosyl cyclase from aplysia californica: Ca2+-mobilizing activity of 8-substituted cyclic inosine 5'-diphosphoribose analogues in T-lymphocytes” (J Med Chem, 2006).
Calls of active or inactive are those of the source. No cut-off for these calls is given here.

Tested on: Jurkat
Assay: Induction of calcium ion mobilization in intact Jurkat cells
Type: functional, cell-based
Settings: Homo sapiens

SMILES	Activity
O=c1c2nc(I)n3c2ncn1[C@@H]1O[C@H](COP(=O)(O)OP(=O)(O)OC[C@H]2O[C@@H]3[C@H](O)[C@@H]2O)[C@@H](O)[C@H]1O	Active
O=c1c2nc(-c3ccccc3)n3c2ncn1[C@@H]1O[C@H](COP(=O)(O)OP(=O)(O)OC[C@H]2O[C@@H]3[C@H](O)[C@@H]2O)[C@@H](O)[C@H]1O	Active
